Results as given in US8557833B2, “Aminopyrimidines useful as kinase inhibitors” (priority 2005, dated 2013).
pKi: −log10 of the molar value. Where two headings read alike, the source gives them in different places.

Key:
[1] = target: MELK (Homo sapiens, UniProt Q14680); experiment: MELK inhibition assay; type: biochemical; conditions: ATP at or close to Km
Source text: (§1) Compound I-1 was screened for its ability to inhibit Arg (Abl-2), FGFR1, MELK, MLK1, MuSK, Ret, and TrkA using screening methods known to one of ordinary skill in the art. All of the above enzymes were screened with ATP concentrations at or close to the Km for ATP.

[2] = target: FGFR1 (Homo sapiens, UniProt P11362); experiment: FGFR1 inhibition assay; type: biochemical; conditions: ATP at or close to Km
Source text: as §1

[3] = target: T1, JAK3 (Homo sapiens, UniProt P52333); experiment: biochemical
T1 sequence (P52333 1-1124): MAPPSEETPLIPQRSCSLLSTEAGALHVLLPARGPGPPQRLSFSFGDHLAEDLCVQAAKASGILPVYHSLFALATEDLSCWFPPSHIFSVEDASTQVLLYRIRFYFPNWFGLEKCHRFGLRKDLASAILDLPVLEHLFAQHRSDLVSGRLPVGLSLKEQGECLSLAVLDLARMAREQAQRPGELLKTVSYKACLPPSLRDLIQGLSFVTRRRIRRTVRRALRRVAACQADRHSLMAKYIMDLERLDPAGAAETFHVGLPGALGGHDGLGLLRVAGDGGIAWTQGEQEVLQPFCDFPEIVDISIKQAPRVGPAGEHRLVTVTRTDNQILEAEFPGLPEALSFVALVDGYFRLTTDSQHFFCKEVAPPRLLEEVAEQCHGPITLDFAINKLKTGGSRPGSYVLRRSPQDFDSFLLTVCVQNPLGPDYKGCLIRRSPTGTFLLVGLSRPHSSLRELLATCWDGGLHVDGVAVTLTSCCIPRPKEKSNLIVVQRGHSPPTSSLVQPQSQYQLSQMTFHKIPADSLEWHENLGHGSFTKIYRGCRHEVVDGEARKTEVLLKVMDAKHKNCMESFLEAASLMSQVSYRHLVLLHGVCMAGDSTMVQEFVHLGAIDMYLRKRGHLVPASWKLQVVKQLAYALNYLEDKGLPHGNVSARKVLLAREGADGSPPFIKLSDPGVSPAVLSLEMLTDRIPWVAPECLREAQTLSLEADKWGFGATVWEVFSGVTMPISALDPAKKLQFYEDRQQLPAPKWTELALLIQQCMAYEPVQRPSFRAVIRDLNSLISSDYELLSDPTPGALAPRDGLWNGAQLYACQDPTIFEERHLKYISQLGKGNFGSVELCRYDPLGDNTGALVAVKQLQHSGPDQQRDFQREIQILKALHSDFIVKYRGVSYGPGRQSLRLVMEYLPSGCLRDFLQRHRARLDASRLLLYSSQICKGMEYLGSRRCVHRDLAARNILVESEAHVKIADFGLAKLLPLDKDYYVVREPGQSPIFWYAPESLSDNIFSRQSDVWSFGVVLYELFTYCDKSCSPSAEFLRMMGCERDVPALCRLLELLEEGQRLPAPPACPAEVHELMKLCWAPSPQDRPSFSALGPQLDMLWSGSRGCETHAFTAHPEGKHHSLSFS
Experimental: Reactions were carried out in a kinase buffer containing 100 mM HEPES (pH 7.4), 1 mM DTT, 10 mM MgCl2, 25 mM NaCl, and 0.01% BSA. Substrate concentrations in the assay were 5 μM ATP (200 uCi/μmole ATP) and 1 μM poly(Glu)4Tyr. Reactions were carried out at 25° C. and 1 nM JAK3.
To each well of a 96 well polycarbonate plate was added 1.5 μl of a candidate JAK3 inhibitor along with 50 μl of kinase buffer containing 2 μM poly(Glu)4Tyr and 10 μM ATP. This was then mixed and 50 μl of kinase buffer containing 2 nM JAK3 enzyme was added to start the reaction. After 20 minutes at room temperature (25 C), the reaction was stopped with 50 μl of 20% trichloroacetic acid (TCA) that also contained 0.4 mM ATP. The entire contents of each well were then transferred to a 96 well glass fiber filter plate using a TomTek Cell Harvester. After washing, 60 μl of scintillation fluid was added and ^33P incorporation detected on a Perkin Elmer TopCount.

[4] = target: MLK1 (Homo sapiens, UniProt P80192); experiment: MLK1 inhibition assay; type: biochemical; conditions: ATP at or close to Km
Sequence of MLK1 (P80192 whole entry, species assumed): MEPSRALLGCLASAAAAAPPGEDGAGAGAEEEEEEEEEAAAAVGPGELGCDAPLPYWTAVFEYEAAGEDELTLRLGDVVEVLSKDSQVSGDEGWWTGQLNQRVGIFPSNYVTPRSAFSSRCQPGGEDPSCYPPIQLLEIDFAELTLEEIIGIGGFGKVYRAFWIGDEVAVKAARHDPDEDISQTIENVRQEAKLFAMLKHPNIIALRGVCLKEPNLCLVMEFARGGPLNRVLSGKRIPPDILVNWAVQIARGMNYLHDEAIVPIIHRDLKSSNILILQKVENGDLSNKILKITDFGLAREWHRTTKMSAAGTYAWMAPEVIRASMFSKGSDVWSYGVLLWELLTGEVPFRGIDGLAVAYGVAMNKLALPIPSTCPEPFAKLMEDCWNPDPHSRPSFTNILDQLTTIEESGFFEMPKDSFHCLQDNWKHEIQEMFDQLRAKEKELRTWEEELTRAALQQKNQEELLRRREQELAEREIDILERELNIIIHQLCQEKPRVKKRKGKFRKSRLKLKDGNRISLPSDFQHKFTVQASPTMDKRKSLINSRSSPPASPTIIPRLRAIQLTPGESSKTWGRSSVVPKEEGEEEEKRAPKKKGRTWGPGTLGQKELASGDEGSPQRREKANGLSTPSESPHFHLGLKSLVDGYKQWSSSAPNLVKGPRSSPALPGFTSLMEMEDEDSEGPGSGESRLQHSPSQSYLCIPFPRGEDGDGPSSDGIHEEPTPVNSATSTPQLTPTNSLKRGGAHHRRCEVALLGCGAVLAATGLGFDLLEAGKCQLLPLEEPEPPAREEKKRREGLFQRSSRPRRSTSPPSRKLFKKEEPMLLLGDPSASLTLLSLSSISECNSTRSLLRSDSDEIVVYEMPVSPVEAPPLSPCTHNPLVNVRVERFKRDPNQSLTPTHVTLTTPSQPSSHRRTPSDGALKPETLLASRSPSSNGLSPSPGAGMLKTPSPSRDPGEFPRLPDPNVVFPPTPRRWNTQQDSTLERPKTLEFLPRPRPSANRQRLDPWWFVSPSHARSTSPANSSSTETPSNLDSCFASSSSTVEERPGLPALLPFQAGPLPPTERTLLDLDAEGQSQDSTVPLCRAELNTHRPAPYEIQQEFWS
Source text: as §1

[5] = target: Arg (Abl-2) (Homo sapiens, UniProt P42684); experiment: Arg (Abl-2) inhibition assay; type: biochemical; conditions: ATP at or close to Km
Sequence of Arg (Abl-2) (P42684 whole entry, species assumed): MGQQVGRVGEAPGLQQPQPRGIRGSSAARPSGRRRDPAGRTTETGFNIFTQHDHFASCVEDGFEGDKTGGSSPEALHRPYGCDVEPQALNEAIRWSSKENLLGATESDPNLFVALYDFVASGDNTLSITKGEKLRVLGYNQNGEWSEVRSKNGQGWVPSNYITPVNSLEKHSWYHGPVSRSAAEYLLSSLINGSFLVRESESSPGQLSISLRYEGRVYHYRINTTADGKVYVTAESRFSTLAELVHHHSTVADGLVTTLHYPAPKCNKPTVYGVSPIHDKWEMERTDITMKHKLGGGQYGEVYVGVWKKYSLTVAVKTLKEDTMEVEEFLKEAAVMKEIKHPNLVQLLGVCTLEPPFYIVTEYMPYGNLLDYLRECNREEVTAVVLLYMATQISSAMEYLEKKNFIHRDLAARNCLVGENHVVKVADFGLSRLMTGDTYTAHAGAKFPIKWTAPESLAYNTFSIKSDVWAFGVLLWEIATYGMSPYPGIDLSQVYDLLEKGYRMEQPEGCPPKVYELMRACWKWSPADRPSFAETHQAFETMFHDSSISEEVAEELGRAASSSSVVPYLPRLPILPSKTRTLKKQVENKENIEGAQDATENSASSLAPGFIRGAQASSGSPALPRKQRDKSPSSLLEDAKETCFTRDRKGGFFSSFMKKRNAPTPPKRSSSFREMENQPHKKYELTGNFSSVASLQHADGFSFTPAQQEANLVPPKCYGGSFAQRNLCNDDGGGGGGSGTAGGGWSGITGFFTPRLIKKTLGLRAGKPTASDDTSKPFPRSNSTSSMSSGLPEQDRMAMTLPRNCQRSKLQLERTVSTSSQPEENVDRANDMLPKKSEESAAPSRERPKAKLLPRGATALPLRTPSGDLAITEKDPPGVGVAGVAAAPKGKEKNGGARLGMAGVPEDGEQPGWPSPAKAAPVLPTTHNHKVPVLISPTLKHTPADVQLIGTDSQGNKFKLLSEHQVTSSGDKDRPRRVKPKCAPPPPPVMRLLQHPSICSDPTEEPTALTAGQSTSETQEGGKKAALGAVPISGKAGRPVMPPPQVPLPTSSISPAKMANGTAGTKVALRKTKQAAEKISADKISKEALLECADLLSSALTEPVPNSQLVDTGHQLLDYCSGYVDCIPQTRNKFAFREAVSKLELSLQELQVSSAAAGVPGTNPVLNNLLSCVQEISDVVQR
Source text: as §1

[6] = target: TrkA (Homo sapiens, UniProt P04629); experiment: TrkA inhibition assay; type: biochemical; conditions: ATP at or close to Km
Sequence of TrkA (P04629 33-796, species assumed): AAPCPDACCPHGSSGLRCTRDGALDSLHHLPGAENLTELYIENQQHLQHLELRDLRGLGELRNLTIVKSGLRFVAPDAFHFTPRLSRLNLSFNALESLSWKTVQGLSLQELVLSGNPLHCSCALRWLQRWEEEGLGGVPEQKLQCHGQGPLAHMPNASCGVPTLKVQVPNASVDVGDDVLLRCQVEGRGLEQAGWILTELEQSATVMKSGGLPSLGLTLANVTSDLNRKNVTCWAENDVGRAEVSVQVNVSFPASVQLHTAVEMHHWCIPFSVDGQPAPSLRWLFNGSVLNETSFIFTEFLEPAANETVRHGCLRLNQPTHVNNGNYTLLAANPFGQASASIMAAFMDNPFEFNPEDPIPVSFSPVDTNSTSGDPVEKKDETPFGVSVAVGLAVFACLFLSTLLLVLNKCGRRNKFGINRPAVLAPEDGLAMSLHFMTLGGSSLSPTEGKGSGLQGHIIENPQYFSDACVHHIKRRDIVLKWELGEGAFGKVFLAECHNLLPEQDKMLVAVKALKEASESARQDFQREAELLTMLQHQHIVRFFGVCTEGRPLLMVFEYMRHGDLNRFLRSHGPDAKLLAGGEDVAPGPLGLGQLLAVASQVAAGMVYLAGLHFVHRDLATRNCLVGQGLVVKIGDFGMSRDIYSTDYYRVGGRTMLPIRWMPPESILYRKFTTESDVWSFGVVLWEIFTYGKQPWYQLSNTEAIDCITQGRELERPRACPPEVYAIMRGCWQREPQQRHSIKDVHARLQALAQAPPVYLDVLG
Source text: as §1

[7] = target: Ret (Homo sapiens, UniProt P07949); experiment: Ret inhibition assay; type: biochemical; conditions: ATP at or close to Km
Sequence of Ret (P07949 29-1114, species assumed): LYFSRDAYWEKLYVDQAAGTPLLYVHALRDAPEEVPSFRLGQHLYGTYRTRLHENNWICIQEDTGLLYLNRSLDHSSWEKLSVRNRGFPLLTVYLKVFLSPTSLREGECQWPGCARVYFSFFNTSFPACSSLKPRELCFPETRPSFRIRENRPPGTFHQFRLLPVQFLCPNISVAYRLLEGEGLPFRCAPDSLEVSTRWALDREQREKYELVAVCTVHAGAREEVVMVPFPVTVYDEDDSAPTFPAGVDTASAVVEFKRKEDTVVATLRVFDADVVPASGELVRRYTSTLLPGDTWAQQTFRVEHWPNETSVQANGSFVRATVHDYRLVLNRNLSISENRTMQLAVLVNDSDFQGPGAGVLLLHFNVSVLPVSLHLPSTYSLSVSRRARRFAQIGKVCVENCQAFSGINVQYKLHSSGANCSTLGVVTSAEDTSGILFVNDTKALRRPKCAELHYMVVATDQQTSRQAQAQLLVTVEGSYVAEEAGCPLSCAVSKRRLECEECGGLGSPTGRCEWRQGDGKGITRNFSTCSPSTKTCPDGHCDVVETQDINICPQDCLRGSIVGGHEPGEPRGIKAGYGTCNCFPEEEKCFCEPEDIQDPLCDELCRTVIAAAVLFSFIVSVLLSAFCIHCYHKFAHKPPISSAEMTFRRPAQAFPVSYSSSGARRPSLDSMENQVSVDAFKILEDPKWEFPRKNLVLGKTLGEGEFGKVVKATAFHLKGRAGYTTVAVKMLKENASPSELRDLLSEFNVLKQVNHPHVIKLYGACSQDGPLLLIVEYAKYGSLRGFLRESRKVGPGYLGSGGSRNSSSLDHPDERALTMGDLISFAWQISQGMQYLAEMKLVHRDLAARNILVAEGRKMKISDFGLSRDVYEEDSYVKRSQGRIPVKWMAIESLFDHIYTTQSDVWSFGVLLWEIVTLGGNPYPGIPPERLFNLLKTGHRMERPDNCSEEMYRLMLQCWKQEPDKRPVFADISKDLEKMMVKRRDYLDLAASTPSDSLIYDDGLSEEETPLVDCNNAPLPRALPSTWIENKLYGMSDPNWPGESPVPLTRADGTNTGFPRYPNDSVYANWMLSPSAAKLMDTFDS
Source text: as §1

[8] = target: T2, MuSK (Homo sapiens, UniProt O15146); experiment: MuSK inhibition assay; type: biochemical; conditions: ATP at or close to Km
T2 sequence (O15146 24-869): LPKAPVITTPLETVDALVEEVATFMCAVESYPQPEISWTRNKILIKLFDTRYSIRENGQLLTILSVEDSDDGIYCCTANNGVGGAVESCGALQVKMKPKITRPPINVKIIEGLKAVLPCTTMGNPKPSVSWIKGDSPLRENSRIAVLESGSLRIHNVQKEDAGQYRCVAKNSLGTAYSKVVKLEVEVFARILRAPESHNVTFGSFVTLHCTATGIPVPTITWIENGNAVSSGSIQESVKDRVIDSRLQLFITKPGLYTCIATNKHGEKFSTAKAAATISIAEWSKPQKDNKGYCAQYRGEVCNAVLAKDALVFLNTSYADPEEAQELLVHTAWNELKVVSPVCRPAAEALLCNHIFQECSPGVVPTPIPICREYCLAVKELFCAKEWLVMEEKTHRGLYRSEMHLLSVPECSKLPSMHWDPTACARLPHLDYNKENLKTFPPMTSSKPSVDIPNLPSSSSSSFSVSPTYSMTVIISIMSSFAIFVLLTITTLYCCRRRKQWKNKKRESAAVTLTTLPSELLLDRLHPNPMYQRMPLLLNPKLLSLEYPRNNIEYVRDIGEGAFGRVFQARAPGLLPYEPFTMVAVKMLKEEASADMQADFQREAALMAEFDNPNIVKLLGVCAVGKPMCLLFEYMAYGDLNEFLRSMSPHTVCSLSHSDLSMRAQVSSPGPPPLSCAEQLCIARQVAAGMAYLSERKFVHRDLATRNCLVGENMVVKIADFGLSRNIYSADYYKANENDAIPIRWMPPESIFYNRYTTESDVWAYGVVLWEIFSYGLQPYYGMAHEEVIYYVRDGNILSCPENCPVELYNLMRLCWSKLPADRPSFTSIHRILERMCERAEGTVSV
Source text: as §1

[9] = 5 μM ATP, 1 μM poly(Glu)4Tyr, 25° C., 1 nM JAK3, read-out: JAK-3 Ki

Sequence of MELK (Q14680 whole entry, species assumed): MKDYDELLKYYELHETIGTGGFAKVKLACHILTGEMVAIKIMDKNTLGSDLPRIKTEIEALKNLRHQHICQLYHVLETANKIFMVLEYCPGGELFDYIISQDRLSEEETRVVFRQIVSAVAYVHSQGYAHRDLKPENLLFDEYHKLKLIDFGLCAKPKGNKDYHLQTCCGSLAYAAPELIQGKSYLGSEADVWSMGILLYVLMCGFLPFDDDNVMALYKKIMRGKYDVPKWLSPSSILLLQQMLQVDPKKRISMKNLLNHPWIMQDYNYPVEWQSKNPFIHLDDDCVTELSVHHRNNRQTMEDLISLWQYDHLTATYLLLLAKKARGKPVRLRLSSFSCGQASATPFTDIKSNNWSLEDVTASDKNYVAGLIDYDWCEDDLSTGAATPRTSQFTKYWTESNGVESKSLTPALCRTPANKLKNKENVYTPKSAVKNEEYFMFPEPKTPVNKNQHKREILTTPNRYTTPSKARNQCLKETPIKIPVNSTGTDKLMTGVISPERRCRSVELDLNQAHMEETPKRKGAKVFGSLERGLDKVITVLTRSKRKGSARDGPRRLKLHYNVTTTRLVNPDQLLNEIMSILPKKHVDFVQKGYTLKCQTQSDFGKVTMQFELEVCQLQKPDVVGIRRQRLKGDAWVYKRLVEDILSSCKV

`Cc1cc(Nc2cc(N3CCC3)nc(Sc3ccc(NC(=O)c4ccccc4Cl)cc3)n2)[nH]n1` [Compound I-1, N-{4-[4-Azetidin-1-yl-6-(5-methyl-2H-pyrazol-3-ylamino)-pyrimidin-2-ylsulfanyl]-phenyl}-2-chloro-benzamide] showed a pKi [1] of 7.77, a pKi [2] of 8.30 and a pKi [3] of 6.80. It also gave a pKi [4] of over 7.74, a pKi [5] of 7.92 and a pKi [6] of over 8.22. The pKi [7] was 8.10 and the pKi [8] was 7.15.
For `Cc1cc(Nc2cc(N3CCC3)nc(Sc3ccc(NC(=O)c4cccc(C(F)(F)F)c4F)cc3)n2)n[nH]1` [Compound I-13], the pKi [3] was 6.66.
With `Cc1cc(Nc2cc(N3CCC3)nc(Sc3ccc(NC(=O)c4cccc(Cl)c4F)cc3)n2)n[nH]1` [Compound I-15] the pKi [3, 9] was 6.92.
`O=C(Nc1ccc(Sc2nc(Nc3cc(C4CC4)[nH]n3)cc(N3CCC3)n2)cc1)c1ccccc1Cl` [Compound I-17] showed a pKi [3, 9] of 7.10.
`Cc1cc(Nc2cc(N3CCC3)nc(Sc3ccc(NC(=O)c4cccc(C)c4Cl)cc3)n2)n[nH]1` [Compound I-20] was tested, and the pKi [3] was 7.21.
Work on `CCc1cccc(C(=O)Nc2ccc(Sc3nc(Nc4cc(C)[nH]n4)cc(N4CCC4)n3)cc2)c1Cl` [Compound I-22] yielded a pKi [3] of 7.21.
